Data on 5 compounds can be found in US20010039246A1, “Composition and method for early bloom thinning of fruit trees and controlling cracking of fruits” (priority 2000, published 2001).

Read-outs that look alike come from different tables or passages of the source.

Data set [1] deals with ‘Gala’ apple trees. The data set is described as follows: Thinning and phytotoxicity of lipid, copper and their mixture (Example 5). The format is in vivo. The note with it: for Russet / Leaf damage / Thinning: ‘Gala’ apples, aqueous cupric sulfate, sprayed at 5% FB; for Russet: fruit russet at harvest. The procedure: Emulsion was prepared with glyceride type of lipids as in Example 2 and diluted to 2% active ingredients. Cupric sulfate was added to the diluted emulsion to give mixtures containing 0, 50, 100, and 150 g metallic copper per 100 L, respectively. Aqueous solutions containing 0, 50, 100, and 150 g metallic copper per 100 L were also prepared seperately. Emulsion and copper mixtures or cupric sulfate solutions were sprayed on 12 year-old ‘Gala’ apple trees at 5% FB. Each treatment consisted of 4 trees (replications) in a row (oriented from south to north) and 2 shoots (one from the east and another from the west side of the canopy) were selected from each of the 4 trees for evaluation. Fruit set was measured 2 months after FB and leaf damage were evaluated 1, 2, and 3 weeks after application. Fruit russet was assessed at harvest and return of bloom was evaluated the following season.

Data set [2] relates to peach trees. As to conditions: cited from earlier work.
Data set [3] deals with ‘Feng Huang’ peaches, ‘Delicious’ apples, and ‘Bing’ cherries. The data set is described as follows: Lipids and surfactants for bloom thinning, all cultivars of Example 4. As to conditions: for damage to leaf buds: surfactant alone at 0.6% or 1%; for thinning effect: surfactant alone at the application rate (0.2%, 0.6%, 1%), sprayed at 5% full bloom. The format is in vivo. An excerpt: Fruit trees of ‘Feng Huang’ peaches, ‘Delicious’ apples, and ‘Bing’ cherries all were sprayed at 5% full bloom. Each treatment (plot) consisted of 4 trees, which received standard commercial management both before and after oil application.

Data set [4] has as its system ‘Bing’ cherry trees. The data set is described as follows: Lipids and surfactants for bloom thinning, fruit set and leaf bud damage (Example 4). The data set is classed as in vivo. As to conditions: sprayed at 5% full bloom. The text has this:
(§1) […] Each treatment (plot) consisted of 4 trees, which received standard commercial management both before and after oil application.

Data set [5] has as its system ‘Feng Huang’ peach. The data set is described as above. As to conditions: applied at 5% full bloom. The data set is classed as in vivo.
Description: as §1

Data set [6] concerns ‘Delicious’ apple. The data set is described as above. As to conditions: applied at 5% full bloom. The format is in vivo.

On to `O=S(=O)([O-])[O-].[Cu+2]` [Cupric sulfate], for which the thinning and phytotoxicity entry in data set [1] (‘Gala’ apple, 50, 100, 150 g metallic copper per 100 L) was “both thinning and phytotoxicity in a concentration dependent manner”. Moreover, in data set [1] (50 g metallic copper/100 L), the Russet came out at 0%, the Leaf damage is 0% and the Thinning was 87%. In data set [1] (100 g metallic copper/100 L), the Russet is listed as 35%, the Leaf damage was 9% and the Thinning turned out to be 64%. Besides, in data set [1] (150 g metallic copper/100 L), the Russet is reported as 64%, the Leaf damage is reported as 24% and the Thinning worked out at 43%.

In the case of “N,N-bis 2-[omega (hydroxypolyoxyethylene/polyoxypropylene)ethyl alkylamine] [Armothin]”, the thinning effect result in data set [2] (1%) is “not effective thinners”.

Take TRITON X-100: in data set [3], the “damage to leaf buds” value is listed as “caused some damage to leaf buds”. Also, the thinning effect result in data set [3] was “not effective in thinning”. The Fruit set was 94% in data set [4] (surfactant solution 0.2%); 83% in data set [4] (surfactant solution 0.6%); 90% in data set [4] (surfactant solution 1.0%); 41% in data set [5] (surfactant solution 0.2%); 42% in data set [5] (surfactant solution 0.6%); 38% in data set [5] (surfactant solution 1.0%). Moreover, the values for the Fruit set in data set [6] (surfactant solution 0.2%), in data set [6] (surfactant solution 0.6%) and in data set [6] (surfactant solution 1.0%) were 62%, 64% and 69%, respectively. The leaf bud damage was 0% in data set [4] (surfactant solution 0.2%); 10% in data set [4] (surfactant solution 0.6%); 18% in data set [4] (surfactant solution 1.0%); 0% in data set [5] (surfactant solution 0.2%); 6% in data set [5] (surfactant solution 0.6%); 20% in data set [5] (surfactant solution 1.0%). Also, the leaf bud damage in data set [6] (surfactant solution 0.2%) is listed as 0%; in data set [6] (surfactant solution 0.6%), 8%; in data set [6] (surfactant solution 1.0%), 15%.

As to TWEEN 60, in data set [3], the “damage to leaf buds” value is on record as “caused some damage to leaf buds”. Also, the thinning effect result in data set [3] was “not effective in thinning”. Also, the Fruit set in data set [4] (surfactant solution 0.2%) was 96%; in data set [4] (surfactant solution 0.6%), 92%; in data set [4] (surfactant solution 1.0%), 87%; in data set [5] (surfactant solution 0.2%), 46%; in data set [5] (surfactant solution 0.6%) it was 42%; in data set [5] (surfactant solution 1.0%) it was 38%. In addition, the Fruit set in data set [6] (surfactant solution 0.2%) is 58%; in data set [6] (surfactant solution 0.6%), 65%; in data set [6] (surfactant solution 1.0%), 61%. Besides, the leaf bud damage in data set [4] (surfactant solution 0.2%) was 0%; in data set [4] (surfactant solution 0.6%) it was 8%; in data set [4] (surfactant solution 1.0%), 17%; in data set [5] (surfactant solution 0.2%) it was 0%; in data set [5] (surfactant solution 0.6%), 5%; in data set [5] (surfactant solution 1.0%), 18%. In addition, the figures for the leaf bud damage in data set [6] (surfactant solution 0.2%), in data set [6] (surfactant solution 0.6%) and in data set [6] (surfactant solution 1.0%) were 0%, 7% and 13%, respectively.

As for alkaryl polyoxyethylene alcohols, in data set [2] (2%), the thinning effect entry is given as “not effective thinners”.
